Data reported in patent publication US12319915B2, “Cytotoxic fluoropyrimidine polymers and methods of use thereof” (Wake Forest University Health Sciences, priority 2018, dated 2025).

What was measured:
COLO205 = test: NCI60 cell line screen, COLO205; format: cell-based; details: Homo sapiens, COLO 205; COLO205, NCI 60 cell line screen
HCT-116 = test: NCI60 cell line screen, HCT-116; format: cell-based; details: Homo sapiens; HCT-116, NCI 60 cell line screen
HT-29 = test: NCI60 cell line screen, HT-29; format: cell-based; details: Homo sapiens; HT-29, NCI 60 cell line screen
HCT-15 = test: NCI60 cell line screen, HCT-15; format: cell-based; details: Homo sapiens; HCT-15, NCI 60 cell line screen
SW620 = test: NCI60 cell line screen, SW620; format: cell-based; details: Homo sapiens, SW-620; SW620, NCI 60 cell line screen
HCC2998 = test: NCI60 cell line screen, HCC2998; format: cell-based; details: Homo sapiens, HCC 2998; HCC2998, NCI 60 cell line screen
KM-12 = test: NCI60 cell line screen, KM-12; format: cell-based; details: Homo sapiens, KM12; KM-12, NCI 60 cell line screen
[1] = target: T1, thymidylate synthase (TS) (Homo sapiens, UniProt P04818); test: Thymidylate synthase activity in lysates of treated HCT116 cells; format: cell-based; details: HCT-116 cells, 100 nM
T1 construct: Cell lysate aliquots (400 μg of protein) were added to the reaction buffer; endogenous in cells; host or cells: HCT116 human colorectal cancer cells
Procedure: Thymidylate Synthase Activity. TS activity assays were performed using well-established procedures. HCT116 cells were plated at a density of 1.0-1.5×10^6 cells in […] plates. Cells were grown overnight in DMEM media with 10% FBS to allow the cells to adhere and begin to grow. Drugs were then added to the medium and the cells were incubated for the indicated time (24 h or 48 h). Cells were then harvested in 25 mM Tris-HCl, pH 7.4 with Complete Protease Inhibitor Cocktail present (as per instructed, Roche), put through two freeze/thaw cycles, and vigorously vortexed. The lysates were centrifuged at 10,000×g for 10 min at 4° C. The supernatants were assayed for protein concentration and TS catalytic activity. TS catalytic assays were performed in a final volume of 200 μL containing freshly prepared 75 μM 5,10 methylene tetrahydrofolate in 0.5 M NaOH (Schircks Laboratories, Switzerland), 10 μM dUMP, 200,000 dpm of 3H-dUMP (Moravek Biochemicals), 100 μM 2-mercaptoethanol, and 25 mM KH2PO4, pH 7.4. Cell lysate aliquots (400 μg of protein) were added to the reaction buffer and lysis buffer was used to adjust the final volume. The reaction mixture was incubated at 37° C. for 30 min, then stopped by addition of 100 μL of ice-cold, 20% TCA. Stopped reactions were maintained 5 min on ice. […] Reactions were then centrifuged, and aliquots of the supernatant were read by scintillation counting.

[2] = tested on: HCT-116-luc orthotopic xenografts
Excerpt: Orthotopic Colorectal Model. Protocol was followed per Tseng et al.'s previous study (Tseng W. et al., Vis Exp, 2007 (10): p. 484). A xenograft tumor was formed as described above using HCT116-luc cells. Once the tumor reached a size large enough for transplantation, mice were euthanized and tumor tissue was removed. The tumor was divided into 2-3 mm pieces and placed in PBS on ice. BALB/c mice were put under anesthesia, and the abdomen was prepped with a betadine solution. A laparotomy was performed in the abdomen and the cecum was exposed. The cecal wall was slightly damaged to allow cell invasion. A piece of tumor tissue was then attached to the outside of the cecum by a figure-8 stitch using a 9-O-nylon suture. The cecum is returned to the cavity and the abdomen wall is closed up using 6-0 coated vycryl sutures. A rectal thermometer monitored the internal temperature of the mice during surgery. Mouse recovery was monitored closely and mice were given Meloxicam every day for 3 days to alleviate pain along with normal saline to keep the mice hydrated. Tumor volume and cell progression was monitored using an IVIS live imaging system for evaluated total proton flux. […] CF10 was dosed 2×/week every week at 360 mg/kg (n=8 study 1; n=2 in study 2). All drugs, or vehicle (0.9% saline; n=8 study 1; n=6 study 2) were administered by i.p. injection in 200 μL volume.
Animal Imaging. Pierce D-Luciferin (Thermo Scientific) was injected subcutaneous using a 28-gauge needle 15 minutes before imaging. Mice were placed in an anesthesia chamber with 1.5% isoflurane and then transferred to the IVIS stage under 2% isoflurane using a nose cone placing the mice on their back. IVIS Lumina LT Series III machine was used for all mouse images. All images were analyzed at the end of the time experiment using the same Living Image software. A region of interest was placed on the mouse′ midsection and determined the total flux in that region. The region of interest remained identical for each mouse. Graphs were plotted as total flux per mouse for each week.
Statistical Analysis. All statistical analyses were conducted using SAS 9.4 using a mixed models approach. Baseline flux from IVIS imaging measurement, group, time and group-by-time interaction were included as fixed effects. The animals were included as random effects to account for the within animal correlation. Survival differences among treatment groups were determined using a log-rank test.
Histology Analysis. Tissues from select mice from all treatment groups were removed from animals after undergoing euthanasia by intra-cardiac administration of KCl solution. In some instances, mice were injected with luciferin ˜20 min prior to euthanasia and tissue extraction to permit IVIS imaging of extracted tissue. Tumors were weighed after removal and in instances where there was suspicion of possible metastases to liver, lung, or other organs tissue from these organs was removed and if luciferin was administered prior to euthanasia, these tissues were imaged using the IVIS system. All tissues were fixed in 10% neutral buffered formalin for 24 h followed by transfer to 70% ethanol. Following routine processing in xylene, tissues were sectioned at 4 μm and stained with Hematoxylin and Eosin and evaluated by light microscopy by a veterinary pathologist.

HCT-116 cells = test: cells; details: Homo sapiens, HCT-116, 96 h, read-out: potency (cytotoxicity) to HCT-116 cells
Excerpt: Cell Lines and Drugs. HCT-116 human CRC cells were supplied by GRCF Biorepository & Cell Center (Johns Hopkins University). HCT116 cells were infected with UBC-GFPLuc-LV by the Cell and Viral Vector Laboratory at Wake Forest School of Medicine to generate luciferase-expressing HCT116-luc cells. These cells also express GFP. All human CRC cell lines were maintained in Dulbecco's Modified Eagle Medium (DMEM; Lonza, Switzerland) supplemented with 10% fetal bovine serum (FBS; Sigma, St. Louis, Missouri). Cell lines were cultured in conditions of 37° C. and 5% CO2 and were confirmed negative for mycoplasma.
Cell Culture. Cells were seeded in 96-well plates at the appropriate density in 200 μL medium and incubated for 37° C. overnight for cell attachment. […] Compounds were serially-diluted in either water or DMSO (final DMSO percentage<1%) to a stock concentration, and an equal amount of drug was added to the exponentially growing cells for each tested concentration. All drugs were filtered in 0.22 μm filter before use.
Cell Viability. CellTiter-Glo (Promega, Wisconsin) was used to determine cell viability. Assays were performed according to the manufacturer's instructions. Cell viability was normalized and calculated as a relative percentage of the averaged vehicle control.

[3] = cited from earlier work
HCT-116 flank tumors = test: HCT-116 flank xenograft model; details: 5-FU 70 mg/kg i.p. 2× per week every other week
Procedure: Animal Model. […] All of the animal experiments were performed on six-to-eight-week-old female BALB/c mice.
Xenograft Model. HCT116 cells (3×10^6 cells) were suspended in ice-cold PBS and mixed 1:1 with Matrigel and subcutaneously injected into the flanks of Balb/nude mice. Tumor growth and mice health were monitored daily until the tumor reached a volume of 100-200 mm^3 (about two weeks). Tumor measurements were taken using electronic digital calipers twice a week, along with mouse weight. Tumor volume (V) was calculated as V=π/6 (L×W^2). 5-FU (70 mg/kg 2×/wk every other week) or CF10 (300 mg/kg) were dosed by intraperitoneal (i.p.) injection using a 28-gauge needle. Mice requiring removal from study due to large tumor burden or weight-loss were euthanized in accord with AVMA guidelines.

T1 sequence (P04818 2-313 limits assumed): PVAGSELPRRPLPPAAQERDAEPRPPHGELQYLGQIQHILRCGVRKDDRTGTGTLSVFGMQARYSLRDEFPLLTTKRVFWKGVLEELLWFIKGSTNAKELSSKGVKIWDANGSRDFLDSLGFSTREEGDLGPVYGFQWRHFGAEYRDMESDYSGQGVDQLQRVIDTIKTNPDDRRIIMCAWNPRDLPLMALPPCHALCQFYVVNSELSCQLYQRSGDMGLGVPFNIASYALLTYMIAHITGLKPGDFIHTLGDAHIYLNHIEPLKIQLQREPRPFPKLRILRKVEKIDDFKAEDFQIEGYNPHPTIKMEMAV

For `O=c1[nH]cc(F)c(=O)[nH]1` [5-FU, 5-fluorouracil], which GI50 (COLO205) is on record?
The GI50 was 6.92 µM.

And the GI50 (HCT-116)?
Its GI50 is 4.07 µM.

What about the GI50 (HT-29) of the same molecule?
The GI50 was 6.76 µM.

What about the GI50 (HCT-15) of the same molecule?
The GI50 was 5.62 µM.

And the GI50 (SW620)?
Its GI50 is 28.2 µM.

And the GI50 (HCC2998)?
The GI50 was 1.51 µM.

And the GI50 (KM-12)?
The GI50 was 8.71 µM.

And the TS enzymatic activity ([1]; 24 h)?
Its TS enzymatic activity is “reduced TS activity”.

And the TS enzymatic activity ([1]; 48 h)?
Its TS enzymatic activity is about 75 % control values.

What about the primary tumor weight ([2]; 5-FU average at week 5, CF10 one mouse at week 8) of the same molecule?
Its primary tumor weight is 1.0 g.

And the “mice with putative metastatic tissue” value ([2]; autopsy at week 5)?
Its value is 2/4.

What about the tolerability ([2]; mouse, in vivo, ip, 100 mg/kg) of the same molecule?
The tolerability was “toxic”.

And the effect on survival ([2]; orthotopic HCT-116-luc)?
Its effect on survival is “no significant effect on survival”.

What about the median survival ([2]; orthotopic HCT-116-luc, i.p.) of the same molecule?
The median survival was 31 days.

And the “tumor growth (rate of change in flux, IVIS)” value ([2]; orthotopic HCT-116-luc, i.p.)?
Its value is “decrease tumor growth relative to control”.

And the IC50 (HCT-116 cells)?
The IC50 was 21 µM.

And the half-life [3]?
The half-life was about 15 min.

What about the “day post-treatment by which all mice required euthanasia” value (HCT-116 flank tumors) of the same molecule?
Its value is at most 16 days.

And the weight loss (HCT-116 flank tumors; CF10 300 mg/kg i.p. 2×/week)?
Its weight loss is “greater weight loss than mice in the other treatment groups”.
